Assay results as given in US20230095428A1, “[6R]-MTHF IN 5-FU BASED CHEMOTHERAPY OF BRAF- OR KRAS-MUTATED COLORECTAL CANCER” (Isofol Medical AB, priority 2021, published 2023).

Key:
[1] = cited from earlier work; for pharmacokinetic comparison of leucovorin and levoleucovorin: in vivo
[2] = in vitro; cited from earlier work
[3] = test system: solid colorectal cancer tumors (mCRC, incl. BRAF- or KRAS-mutated); assay: Clinical study ISO-CC-005 (Phase I/IIa), safety extension cohorts and follow-up study: tumour response by CT, ORR per RECIST 1.1; assay type: in vivo, human; settings: 19 patients harbouring either mutated KRAS or BRAF; 16 weeks and beyond; 120 mg/m2 arfolitixorin
Text: As used herein, the term ORR shall refer to the Objective Response Rate, i.e. the proportion of patients with a reduction in tumor burden of a predefined amount. […] (Note: the appearance of one or more new lesions is also considered progression). […] As used herein, the term best ORR shall refer to the best overall response rate as per RECIST guideline version 1.1 for the treatment period, where applicable. Arfolitixorin has been in development for a number of years and has been studied in several clinical studies. […] 2019. The completion of the study was announced in January 2020. In total, 105 patients were included in the study. Applicant completed the dose definition part of ISO-CC-005 in March 2018, which evaluated the safety and efficacy of arfolitixorin in patients with mCRC. Shortly after, applicant started two additional treatment groups in 2018 to generate more safety and efficacy data, i.e. the safety extension Cohort #18 (Treatment Arm #4) and Cohort #19 (Treatment Arm #6). The aim was to evaluate as many patients as possible from the additional treatment groups after a treatment period of 16 weeks+. On 30 Sep. […] The goal with the Dose-finding Part of the Main Study was to establish the Arfolitixorin dose level assessed as having the most favourable profile, i.e. the selected phase 2 dose (SP2D). […] Response was measured in short- and long-term assessments. […]

## Nc1nc(=O)c2c([nH]1)NC[C@H](CNc1ccc(C(=O)N[C@@H](CCC(=O)O)C(=O)O)cc1)N2C=O [1-LV]
[1]
  pharmacokinetic comparison of leucovorin and levoleucovorin: pharmacokinetically identical
[2]
  conversion to the biologically available methyl-tetrahydrofolate form: rapidly converted

## Nc1nc2c(c(=O)[nH]1)N(C=O)C(CNc1ccc(C(=O)N[C@@H](CCC(=O)O)C(=O)O)cc1)CN2 (some centres unmarked) [Leucovorin, 5-formyl tetrahydrofolic acid]
[1]
  pharmacokinetic comparison of leucovorin and levoleucovorin: pharmacokinetically identical

## Nc1nc2c(c(=O)[nH]1)N1CN(c3ccc(C(=O)N[C@@H](CCC(=O)O)C(=O)O)cc3)C[C@H]1CN2 [[6R]-5,10-MTHF, [6R]-5,10-methylenetetrahydrofolate]
[3]
  best ORR: > 50%

## Nc1nc2c(c(=O)[nH]1)N(C=O)[C@H](CNc1ccc(C(=O)N[C@@H](CCC(=O)O)C(=O)O)cc1)CN2 [d-LV]
[1]; kidneys
  excretion: slowly excreted by the kidneys
